Measurements from patent US20120142735A1, “DISUBSTITUTED [4-(5-AMINOMETHYL-PHENYL)-PIPERIDIN-1-YL]- 1H-INDOL-3-YL]-METHANONES” (SANOFI, priority 2009, published 2012).
Where “and” joins values, the source holds several entries; their conditions need not be identical. Equal entries are not always repeated. Structures can show the parent of a compound that is named as a salt. Where two headings read alike, the source gives them in different places.

Molecular target: T1, recombinant human β tryptase (Homo sapiens, UniProt P20231)
T1 construct: host or cells: yeast cells
T1 sequence (P20231 31-275): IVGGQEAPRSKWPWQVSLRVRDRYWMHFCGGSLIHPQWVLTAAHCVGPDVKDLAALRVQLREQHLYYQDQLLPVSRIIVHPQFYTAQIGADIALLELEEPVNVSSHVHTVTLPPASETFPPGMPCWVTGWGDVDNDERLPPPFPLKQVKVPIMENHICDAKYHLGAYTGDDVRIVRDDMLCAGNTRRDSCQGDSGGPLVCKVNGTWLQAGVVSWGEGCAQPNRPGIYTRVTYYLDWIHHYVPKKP
Assay: Tryptase primary screen (chromogenic assay), IC50 and Ki determination
Assay type: biochemical
Settings: substrate S2366 0.5 mM (2×Km), room temperature, Ki=IC50/(1+[Substrate]/Km)
Method: Tryptase inhibition activity is confirmed using either isolated human lung tryptase or recombinant human β tryptase expressed in yeast cells. Essentially equivalent results are obtained using isolated native enzyme or the expressed enzyme. The assay procedure employs a 96 well microplate (Costar 3590) using L-pyroglutamyl-L-prolyl-L-arginine-para-nitroanilide (S2366: Quadratech) as substrate (essentially as described by McEuen et. al. Biochem Pharm, 1996, 52, pages 331-340). Assays are performed at room temperature using 0.5 mM substrate (2×Km) and the microplate is read on a microplate reader (Beckman Biomek Plate reader) at 405 nm wavelength.
Materials and Methods for Tryptase primary screen (Chromogenic Assay)
S2366 (Stock solutions of 2.5 mM).
Purified recombinant beta Tryptase Stocks of 310 μg/mL.
• Add 60 μL of diluted substrate (final concentration of 500 μM in assay buffer) to each well • Add compound in duplicates, final concentration of 20 μM, volume 20 μL • Add enzyme at a final concentration of 50 ng/mL in a volume of 20 μL • Total volume for each well is 100 μL • Agitate briefly to mix and incubate at room temp in the dark for 30 minutes • Read absorbencies at […]
Each plate has the following controls: • Totals: 60 μL of substrate, 20 μL of buffer (with 0.2% final concentration of DMSO), • 20 μL of enzyme • Non-specific: 60 μL of substrate, 40 μL of buffer (with 0.2% DMSO) • Totals: 60 μL of substrate, 20 μL of buffer (No DMSO), 20 μL of enzyme • Non-specific: 60 μL of substrate, 40 μL of buffer (No DMSO)
The protocol is essentially the same as above except that the compound is added in duplicates at the following final concentrations: 0.01, 0.03, 0.1, 0.3, 1, 3, 10 μM (All dilutions carried out manually). For every assay, whether single point or IC50 determination, a standard compound is used to derive IC50 for comparison. From the IC50 value, the Ki can be calculated using the following formula: Ki=IC50/(1+[Substrate]/Km).

SMILES | Ki (Tryptase Ki) | Ki (read-out: Tryptase Ki) [nM]
COCCn1cc(C(=O)N2CCC(c3cc(CN)ccc3F)CC2)c2cc(F)cc(C)c21 [Example 3, [4-(5-Aminomethyl-2-fluoro-phenyl)-piperidin-1-yl]-[5-fluoro-1-(2-methoxy-ethyl)-7-methyl-1H-indol-3-yl]-methanone hydrochloride] | 35 nM | –
CCCCn1cc(C(=O)N2CCC(c3cc(CN)ccc3F)CC2)c2c(OC(F)(F)F)ccc(F)c21 [Example 7, [4-(5-Aminomethyl-2-fluoro-phenyl)-piperidin-1-yl]-(1-butyl-7-fluoro-4-trifluoromethoxy-1H-indol-3-yl)-methanone hydrochloride] | 365 nM | –
Cc1ccc(F)c2c(C(=O)N3CCC(c4cc(CN)ccc4F)CC3)cn(CCOC(F)(F)F)c12 [Example 22] | 731 nM | –
COCCn1cc(C(=O)N2CCC(c3cc(CN)ccc3F)CC2)c2c(F)ccc(Cl)c21 [Example 9, [4-(5-Aminomethyl-2-fluoro-phenyl)-piperidin-1-yl]-[7-chloro-4-fluoro-1-(2-methoxy-ethyl)-1H-indol-3-yl]-methanone hydrochloride] | 49 nM and 32 nM | –
COCCn1cc(C(=O)N2CCC(c3cc(CN)ccc3F)CC2)c2c(OC(F)(F)F)ccc(Cl)c21 [Example 10, [4-(5-Aminomethyl-2-fluoro-phenyl)-piperidin-1-yl]-[7-chloro-1-(2-methoxy-ethyl)-4-trifluoromethoxy-1H-indol-3-yl]-methanone hydrochloride] | 146 nM and 122 nM | –
NCc1ccc(F)c(C2CCN(C(=O)c3cn(CCOC(F)(F)F)c4c(F)ccc(OC(F)(F)F)c34)CC2)c1 [Example 21, [4-(5-Aminomethyl-2-fluoro-phenyl)-piperidin-1-yl]-[7-fluoro-4-trifluoromethoxy-1-(2-trifluoromethoxy-ethyl)-1H-indol-3-yl]-methanone hydrochloride] | 487 nM | –
COCCn1cc(C(=O)N2CCC(c3cc(CN)ccc3F)CC2)c2c(C(F)(F)F)ccc(F)c21 [Example 13, [4-(5-Aminomethyl-2-fluoro-phenyl)-piperidin-1-yl]-[7-fluoro-1-(2-methoxy-ethyl)-4-trifluoromethyl-1H-indol-3-yl]-methanone hydrochloride] | 129 nM | –
COCCn1cc(C(=O)N2CCC(c3cc(CN)ccc3F)CC2)c2c(Cl)cc(Cl)cc21 [Example 16, [4-(5-Aminomethyl-2-fluoro-phenyl)-piperidin-1-yl]-[4,6-dichloro-1-(2-methoxy-ethyl)-1H-indol-3-yl]-methanone hydrochloride] | 649 nM | –
COCCn1cc(C(=O)N2CCC(c3cc(CN)ccc3F)CC2)c2c(Cl)ccc(Cl)c21 [Example 8, [4-(5-Aminomethyl-2-fluoro-phenyl)-piperidin-1-yl]-[4,7-dichloro-1-(2-methoxy-ethyl)-1H-indol-3-yl]-methanone hydrochloride] | 134 nM and 74 nM | –
COCCn1cc(C(=O)N2CCC(c3cc(CN)ccc3F)CC2)c2c(F)cc(F)cc21 [Example 18, [4-(5-Aminomethyl-2-fluoro-phenyl)-piperidin-1-yl]-[4,6-difluoro-1-(2-methoxy-ethyl)-1H-indol-3-yl]-methanone hydrochloride] | 192 nM | –
COCCn1cc(C(=O)N2CCC(c3cc(CN)ccc3F)CC2)c2cc(Cl)cc(C)c21 [Example 1, [4-(5-Aminomethyl-2-fluoro-phenyl)-piperidin-1-yl]-[5-chloro-1-(2-methoxy-ethyl)-7-methyl-1H-indol-3-yl]-methanone hydrochloride] | 116 nM | –
COCCn1cc(C(=O)N2CCC(c3cc(CN)ccc3F)CC2)c2ccc(F)c(C)c21 [Example 2, [4-(5-Aminomethyl-2-fluoro-phenyl)-piperidin-1-yl]-[6-fluoro-1-(2-methoxy-ethyl)-7-methyl-1H-indol-3-yl]-methanone hydrochloride] | 45 nM | –
CCCn1cc(C(=O)N2CCC(c3cc(CN)ccc3F)CC2)c2c(OC(F)(F)F)ccc(F)c21 [Example 11, [4-(5-Aminomethyl-2-fluoro-phenyl)-piperidin-1-yl]-(1-propyl-7-fluoro-4-trifluoromethoxy-1H-indol-3-yl)-methanone hydrochloride] | 208 nM and 186 nM | –
COCCn1cc(C(=O)N2CCC(c3cc(CN)ccc3F)CC2)c2c(Cl)ccc(C)c21 [Example 6, [4-(5-Aminomethyl-2-fluoro-phenyl)-piperidin-1-yl]-[4-chloro-1-(2-methoxy-ethyl)-7-methyl-1H-indol-3-yl]-methanone hydrochloride] | 35 nM | –
COCCn1cc(C(=O)N2CCC(c3cc(CN)ccc3F)CC2)c2c(F)ccc(C)c21 [Example 4, [4-(5-Aminomethyl-2-fluoro-phenyl)-piperidin-1-yl]-[4-fluoro-1-(2-methoxy-ethyl)-7-methyl-1H-indol-3-yl]-methanone hydrochloride] | 26 nM | –
COCCn1cc(C(=O)N2CCC(c3cc(CN)ccc3F)CC2)c2c(C)ccc(F)c21 [Example 15, [4-(5-Aminomethyl-2-fluoro-phenyl)-piperidin-1-yl]-[7-fluoro-1-(2-methoxy-ethyl)-4-methyl-1H-indol-3-yl]-methanone hydrochloride] | 45 nM | –
COCCn1cc(C(=O)N2CCC(c3cc(CN)ccc3F)CC2)c2c(F)ccc(OC(F)(F)F)c21 [Example 5, [4-(5-Aminomethyl-2-fluoro-phenyl)-piperidin-1-yl]-[4-fluoro-1-(2-methoxy-ethyl)-7-trifluoromethoxy-1H-indol-3-yl]-methanone hydrochloride] | 322 nM | –
COCCn1cc(C(=O)N2CCC(c3cc(CN)ccc3F)CC2)c2c(F)c(F)ccc21 [Example 19, [4-(5-Aminomethyl-2-fluoro-phenyl)-piperidin-1-yl]-[4,5-difluoro-1-(2-methoxy-ethyl)-1H-indol-3-yl]-methanone hydrochloride] | 142 nM | –
COCCn1cc(C(=O)N2CCC(c3cc(CN)ccc3F)CC2)c2c(Cl)ccc(OC(F)(F)F)c21 [Example 12, [4-(5-Aminomethyl-2-fluoro-phenyl)-piperidin-1-yl]-[4-chloro-1-(2-methoxy-ethyl)-7-trifluoromethoxy-1H-indol-3-yl]-methanone hydrochloride] | 171 nM | –
COCCn1cc(C(=O)N2CCC(c3cc(CN)ccc3F)CC2)c2c(C(F)(F)F)ccc(OC)c21 [Example 14, [4-(5-Aminomethyl-2-fluoro-phenyl)-piperidin-1-yl]-[7-methoxy-1-(2-methoxy-ethyl)-4-trifluoromethyl-1H-indol-3-yl]-methanone hydrochloride] | 48 nM | –
COCCn1cc(C(=O)N2CCC(c3cc(CN)ccc3F)CC2)c2c(F)ccc(F)c21 [Example 17, [4-(5-Aminomethyl-2-fluoro-phenyl)-piperidin-1-yl]-[4,7-difluoro-1-(2-methoxy-ethyl)-1H-indol-3-yl]-methanone] | – | 25
COCCn1cc(C(=O)N2CCC(c3cc(CN)ccc3F)CC2)c2cc(OC)c(OC)cc21 [Example 20, [4-(5-Aminomethyl-2-fluoro-phenyl)-piperidin-1-yl]-[5,6-dimethoxy-1-(2-methoxy-ethyl)-1H-indol-3-yl]-methanone hydrochloride] | 90 nM | –
